# Results reported in patent publication US10206898B2, “Compositions and methods for treating or preventing obesity in a subject in need thereof” (Amarin Pharmaceuticals Ireland Limited, priority 2013, dated 2019).
# Tested on: patients with fasting triglyceride levels ≥200 mg/dl and <500 mg/dl despite statin therapy
# Assay: 12-week placebo-controlled, randomized, double-blind study: lipoprotein particle concentrations
# Type: in vivo, human
# Description: A multi-center, placebo-controlled, randomized, double-blind, 12-week study was performed to evaluate the efficacy and safety of >96% E-EPA in patients with fasting triglyceride levels ≥200 mg/dl and <500 mg/dl despite statin therapy (the mean of two qualifying entry values needed to be ≥185 mg/dl and at least one of the values needed to be ≥200 mg/dl). The primary objective of the study was to determine the efficacy of >96% E-EPA 2 g daily and 4 g daily, compared to placebo, in lowering fasting TG levels in patients with high risk for cardiovascular disease and with fasting TG levels ≥200 mg/dl and <500 mg/dl, despite treatment to LDL-C goal on statin therapy. The population for this study was men and women >18 years of age with a body mass index ≤45 kg/m^2 with fasting TG levels greater than or equal to 200 mg/dl and less than 500 mg/dl and on a stable does of statin therapy (with or without ezetimibe). The statin was atorvostatin, rosuvastatin or simvastatin. The dose of statin must have been stable for ≥4 weeks prior to the LDL-C/TG baseline qualifying measurement for randomization. The statin dose was optimized such that the patients are at their LDL-C goal at the LDL-C/TG baseline qualifying measurements. The same statin at the same dose was continued until the study ended. Approximately 702 patients were randomized at approximately 80 centers in the U.S. The study was a 18- to 20-week, Phase 3, multi-center study consisting of 2 study periods: (1) A 6- to 8-week screening period that included a diet and lifestyle stabilization, a non-statin lipid-altering treatment washout, and an LDL-C and TG qualifying period and (2) A 12-week, double-blind, randomized, placebo-controlled treatment period. After confirmation of qualifying fasting LDL-C and TG values, eligible patients entered a 12-week, randomized, double-blind treatment period. At Visit 4 (Week 0), patients were randomly assigned to 1 of the following treatment groups: • >96% E-EPA 2 g daily, • >96% E-EPA 4 g daily, or • Placebo. Eligible patients were randomly assigned at Visit 4 (Week 0) to receive orally >96% E-EPA 2 g daily, >96% E-EPA 4 g daily, or placebo. >96% E-EPA was provided in 1 g liquid-filled, oblong, gelatin capsules. The matching placebo capsule was filled with light liquid paraffin and contained 0 g of >96% E-EPA. >96% E-EPA capsules were to be taken with food (i.e. with or at the end of a meal). […]
compound,measurement,setting,value
"CC/C=C\C/C=C\C/C=C\C/C=C\C/C=C\CCCC(=O)OCC [Ethyl Eicosapentaenoate, ethyl eicosapentaenoate]",reduction of median concentrations of total HDL over baseline when adjusted for placebo,"4 g per day, stated as a reduction (P<0.0001)",7.4%
same,reduction of median concentrations of total LDL over baseline when adjusted for placebo,"4 g per day, stated as a reduction (P<0.01)",7.7%
same,"HDL % Change (placebo-adjusted, relative to baseline)","4 g/day, 12 weeks, statin-treated patients, median total HDL particle concentration",−7.4%
same,"LDL % Change (placebo-adjusted, relative to baseline)","4 g/day, 12 weeks, statin-treated patients, median total LDL particle concentration",−7.7%
